Measurements: US20220289794A1, “SYNTHETIC ANTIMICROBIAL PEPTIDES” (priority 2019, published 2022)
≈ marks a conversion by molar mass, not a printed value. Non-standard residues stand in square brackets, D forms with d. Residues, ends and D or L forms follow the SMILES beside them. dDip = N[C@@H](C(=O)O)C(c1ccccc1)c1ccccc1; Dip = N[C@H](C(=O)O)C(c1ccccc1)c1ccccc1; 2Nal = N[C@@H](Cc1ccc2ccccc2c1)C(=O)O; d2Nal = N[C@H](Cc1ccc2ccccc2c1)C(=O)O; Dab = NCC[C@H](N)C(=O)O

What was measured:
[1] = test system: Pseudomonas aeruginosa (ATCC 27883); conditions: ATCC 27883
in vitro = conditions: human, fresh human red blood cells (washed), pH 7.4
[2] = test system: Methicillin-resistant Staphylococcus aureus MRSA (ATCC BAA-1556); conditions: ATCC BAA-1556
S. aureus ATCC 29213 = conditions: ATCC 29213
[3] = test system: Escherichia coli (ATCC 25922); conditions: ATCC 25922
human red blood cells = test system: human red blood cells; design: unit not given beside the values

Structure (SMILES)	MIC P. aeruginosa ATCC 27883 [1]	HC50 at 0.5 h (in vitro)	MIC MRSA ATCC BAA-1556 [2]	MIC S. aureus ATCC 29213 (S. aureus ATCC 29213)	MIC E. coli ATCC 25922 [3]	HC50 (human red blood cells)
N=C(N)NCCC[C@@H]1NC(=O)[C@H](CCN)NC(=O)[C@@H](Cc2ccc3ccccc3c2)NC(=O)[C@@H](Cc2ccc3ccccc3c2)NC(=O)[C@H](Cc2c[nH]c3ccccc23)NC(=O)[C@@H](CCCNC(=N)N)NC(=O)[C@H](CCCNC(=N)N)NC(=O)[C@@H](CCCNC(=N)N)NC1=O [IFX-056, c[Dab-Arg-arg-Arg-arg-Trp-naI-naI]] (cyclo([Dab]R[dR]R[dR]W[d2Nal][d2Nal]))	32 µg/mL (≈ 24.5 µM)	–	64 µg/mL (≈ 49 µM)	32 µg/mL (≈ 24.5 µM)	32 µg/mL (≈ 24.5 µM)	415
N=C(N)NCCC[C@@H]1NC(=O)[C@H](CCCNC(=N)N)NC(=O)[C@H](CCCNC(=N)N)NC(=O)[C@H](Cc2ccc3ccccc3c2)NC(=O)[C@H](Cc2ccc3ccccc3c2)NC(=O)[C@H](Cc2ccc3ccccc3c2)NC(=O)[C@H](CCCNC(=N)N)NC(=O)[C@H](CCCNC(=N)N)NC1=O [IFX-013, c[Arg-Arg-Arg-Arg-Arg-NaI-NaI-NaI]] (cyclo([2Nal][2Nal][2Nal]RRRRR))	25 µg/mL (≈ 18.2 µM)	–	6.2 µg/mL (≈ 4.52 µM)	6.2 µg/mL (≈ 4.52 µM)	50 µg/mL (≈ 36.4 µM)	230
N=C(N)NCCC[C@@H]1NC(=O)[C@H](CCCNC(=N)N)NC(=O)[C@H](CCCNC(=N)N)NC(=O)[C@H](Cc2ccc3ccccc3c2)NC(=O)[C@H](Cc2ccc3ccccc3c2)NC(=O)[C@H](CCCNC(=N)N)NC1=O [IFX-011, c[Arg-Arg-Arg-Arg-NaI-NaI]] (cyclo([2Nal][2Nal]RRRR))	50 µg/mL (≈ 49.1 µM)	–	6.2 µg/mL (≈ 6.08 µM)	6.2 µg/mL (≈ 6.08 µM)	50 µg/mL (≈ 49.1 µM)	295
N=C(N)NCCC[C@H](NC(=O)[C@H](CCCNC(=N)N)NC(=O)[C@H](CCCNC(=N)N)NC(=O)[C@@H](N)CCCNC(=N)N)C(=O)N[C@@H](Cc1c[nH]c2ccccc12)C(=O)N[C@H](C(=O)N[C@H](C(=O)O)C(c1ccccc1)c1ccccc1)C(c1ccccc1)c1ccccc1 [IFX-026-1, NH2-R-R-R-R-Trp-Dip-Dip-OH] (H-RRRRW[Dip][Dip]-OH)	25 µg/mL (≈ 19.6 µM)	–	6.2 µg/mL (≈ 4.86 µM)	6.2 µg/mL (≈ 4.86 µM)	12.5 µg/mL (≈ 9.8 µM)	430
N=C(N)NCCC[C@H](NC(=O)[C@H](CCCNC(=N)N)NC(=O)[C@H](CCCNC(=N)N)NC(=O)[C@@H](N)CCCNC(=N)N)C(=O)N[C@@H](Cc1ccc2ccccc2c1)C(=O)N[C@@H](Cc1ccc2ccccc2c1)C(=O)N[C@@H](Cc1ccc2ccccc2c1)C(=O)N[C@@H](Cc1ccc2ccccc2c1)C(=O)O [IFX-006-1, NH2-Arg-Arg-Arg-Arg-NaI-NaI-NaI-NaI-OH] (H-RRRR[2Nal][2Nal][2Nal][2Nal]-OH)	>100 µg/mL	–	6.2 µg/mL (≈ 4.33 µM)	3.1 µg/mL (≈ 2.17 µM)	50 µg/mL (≈ 34.9 µM)	140
N=C(N)NCCC[C@@H]1NC(=O)[C@@H](CCCNC(=N)N)NC(=O)[C@H](Cc2c[nH]c3ccccc23)NC(=O)[C@@H](Cc2c[nH]c3ccccc23)NC(=O)[C@H](Cc2c[nH]c3ccccc23)NC(=O)[C@@H](Cc2c[nH]c3ccccc23)NC(=O)[C@H](CCCNC(=N)N)NC(=O)[C@@H](CCCNC(=N)N)NC1=O [IFX-034, c[arg-Arg-arg-Arg-trp-Trp-trp-Trp]] (cyclo(R[dR]R[dW]W[dW]W[dR]))	25 µg/mL (≈ 18.3 µM)	–	6.2 µg/mL (≈ 4.53 µM)	6.2 µg/mL (≈ 4.53 µM)	12.5 µg/mL (≈ 9.13 µM)	320

More lines, now with the values ahead:

MIC P. aeruginosa ATCC 27883 [1]	HC50 at 0.5 h (in vitro)	MIC MRSA ATCC BAA-1556 [2]	MIC S. aureus ATCC 29213 (S. aureus ATCC 29213)	MIC E. coli ATCC 25922 [3]	HC50 (human red blood cells)	Structure (SMILES)
12.5 µg/mL (≈ 10.3 µM)	100 µg/mL	–	–	–	–	N=C(N)NCCC[C@@H]1NC(=O)[C@H](CCCNC(=N)N)NC(=O)[C@@H](CCCNC(=N)N)NC(=O)[C@H](CCCNC(=N)N)NC(=O)[C@H](Cc2ccc3ccccc3c2)NC(=O)[C@H](Cc2ccc3ccccc3c2)NC(=O)[C@H](Cc2ccc3ccccc3c2)NC1=O [IFX-079, c[Arg-arg-Arg-Arg-NaI-NaI-NaI]] (cyclo(R[dR]RR[2Nal][2Nal][2Nal]))
12.5 µg/mL (≈ 10.3 µM)	155 µg/mL	–	–	–	–	N=C(N)NCCC[C@@H]1NC(=O)[C@H](CCCNC(=N)N)NC(=O)[C@H](CCCNC(=N)N)NC(=O)[C@@H](Cc2ccc3ccccc3c2)NC(=O)[C@@H](Cc2ccc3ccccc3c2)NC(=O)[C@@H](Cc2ccc3ccccc3c2)NC(=O)[C@H](CCCNC(=N)N)NC1=O [IFX-086, c[Arg-Arg-Arg-Arg-naI-naI-naI]] (cyclo(RRRR[d2Nal][d2Nal][d2Nal]))
50 µg/mL (≈ 41.1 µM)	200 µg/mL	–	–	–	–	N=C(N)NCCC[C@H]1NC(=O)[C@@H](CCCNC(=N)N)NC(=O)[C@@H](CCCNC(=N)N)NC(=O)[C@@H](Cc2ccc3ccccc3c2)NC(=O)[C@@H](Cc2ccc3ccccc3c2)NC(=O)[C@@H](Cc2ccc3ccccc3c2)NC(=O)[C@@H](CCCNC(=N)N)NC1=O [IFX-081, c[arg-arg-arg-arg-naI-naI-naI]] (cyclo([dR][dR][dR][dR][d2Nal][d2Nal][d2Nal]))
12.5 µg/mL (≈ 10.3 µM)	170 µg/mL	–	–	–	–	N=C(N)NCCC[C@@H]1NC(=O)[C@@H](CCCNC(=N)N)NC(=O)[C@H](CCCNC(=N)N)NC(=O)[C@@H](CCCNC(=N)N)NC(=O)[C@@H](Cc2ccc3ccccc3c2)NC(=O)[C@H](Cc2ccc3ccccc3c2)NC(=O)[C@@H](Cc2ccc3ccccc3c2)NC1=O [IFX-083, c[arg-Arg-arg-Arg-naI-NaI-naI]] (cyclo([dR]R[dR]R[d2Nal][2Nal][d2Nal]))
12.5 µg/mL (≈ 10.3 µM)	95 µg/mL	–	–	–	–	N=C(N)NCCC[C@@H]1NC(=O)[C@H](Cc2ccc3ccccc3c2)NC(=O)[C@H](Cc2ccc3ccccc3c2)NC(=O)[C@H](Cc2ccc3ccccc3c2)NC(=O)[C@H](CCCNC(=N)N)NC(=O)[C@@H](CCCNC(=N)N)NC(=O)[C@H](CCCNC(=N)N)NC1=O [IFX-078, c[Arg-Arg-arg-Arg-NaI-NaI-NaI]] (cyclo(RR[dR]R[2Nal][2Nal][2Nal]))
12.5 µg/mL (≈ 10.3 µM)	145 µg/mL	–	–	–	–	N=C(N)NCCC[C@@H]1NC(=O)[C@H](Cc2ccc3ccccc3c2)NC(=O)[C@@H](Cc2ccc3ccccc3c2)NC(=O)[C@H](Cc2ccc3ccccc3c2)NC(=O)[C@@H](CCCNC(=N)N)NC(=O)[C@H](CCCNC(=N)N)NC(=O)[C@@H](CCCNC(=N)N)NC1=O [IFX-085, c[Arg-arg-Arg-arg-NaI-naI-NaI]] (cyclo(R[dR]R[dR][2Nal][d2Nal][2Nal]))
12.5 µg/mL (≈ 10.3 µM)	145 µg/mL	–	–	–	–	N=C(N)NCCC[C@H]1NC(=O)[C@H](Cc2ccc3ccccc3c2)NC(=O)[C@H](Cc2ccc3ccccc3c2)NC(=O)[C@H](Cc2ccc3ccccc3c2)NC(=O)[C@@H](CCCNC(=N)N)NC(=O)[C@@H](CCCNC(=N)N)NC(=O)[C@@H](CCCNC(=N)N)NC1=O [IFX-087, c[arg-arg-arg-arg-NaI-NaI-NaI]] (cyclo([dR][dR][dR][dR][2Nal][2Nal][2Nal]))
6.2 µg/mL (≈ 4.79 µM)	200 µg/mL	–	–	–	–	N=C(N)NCCC[C@@H]1NC(=O)[C@@H](CCCNC(=N)N)NC(=O)[C@H](CCCNC(=N)N)NC(=O)[C@@H](CCCNC(=N)N)NC(=O)[C@@H](C(c2ccccc2)c2ccccc2)NC(=O)[C@H](C(c2ccccc2)c2ccccc2)NC(=O)[C@@H](C(c2ccccc2)c2ccccc2)NC1=O [IFX-069, c[arg-Arg-arg-Arg-dip-Dip-dip]] (cyclo([dR]R[dR]R[dDip][Dip][dDip]))
